# Assay: recombinant UMI read abundance after kanamycin selection (control-corrected) (log10(CPM+1)); higher = more efficient recombination; extreme values may be limits of the assay; sequences stand for … in AGTGCAGAGAAAATCGGCCAGTTTTCTCTGCCTGCAGTCCGCATGCCGTGGGACCCCTTGGGTTCTAACCTGTTGCCTAGATTTATGCAGCGGACTGCCTTTCTCCCAAAGTGATAAACCGG…AGGTTGGTTTCACT; site = the 11-nt donor
# In short: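 In a pooled Escherichia coli screen for the IS621 bridge recombinase, donor and donor-binding-loop pairs were each placed with a 12-nt UMI on a plasmid bearing a promoterless kanamycin gene. This library was co-electroporated with a target plasmid encoding a fixed target and T7-inducible recombinase, and cells were plated either on IPTG (0.07 mM) plus kanamycin or without selection, in two replicates each. Recombinant UMIs were PCR-amplified across the donor–target junction and sequenced, and counts were converted to CPM, averaged over replicates, scaled by control-derived factors and reported as log10(CPM+1).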
row,Sequence,recombinant UMI read abundance (log10)
1,TCCCTTCCATGGACCGGTTTTCCCGGTAATCCGTATTTGAG (site TCCCTTCCTCT),0.0101
2,TCCGATGCATGGACCGGTTTTCCCGGTAATCCGTATTTGTT (site TCCGATGCTAA),0
3,TCCGGGCCATGGACCGGTTTTCCCGGTAATCCGTATTTGAC (site TCCGGGCCTGT),0
4,TCCGTCCCATGGACCGGTTTTCCCGGTAATCCGTATTTGCA (site TCCGTCCCTTG),0
5,TCCTAATCATGGACCGGTTTTCCCGGTAATCCGTATTTGTT (site TCCTAATCTAA),0
6,TCCTAGACATGGACCGGTTTTCCCGGTAATCCGTATTTGGG (site ACCTAGACTCC),0.034
7,TCCTAGACATGGACCGGTTTTCCCGGTAATCCGTATTTGGG (site CCCTAGACTCC),0.0212
8,TCCTAGACATGGACCGGTTTTCCCGGTAATCCGTATTTGGG (site GCCTAGACTCC),0.0199
9,TCCTAGACATGGACCGGTTTTCCCGGTAATCCGTATTTGGG (site TCCTAGACTCC),0.00458
10,TCCTAGTCATGGACCGGTTTTCCCGGTAATCCGTATTTGTA (site TCCTAGTCTTA),0.256
11,TCCTATACATGGACCGGTTTTCCCGGTAATCCGTATTTGGA (site TCCTATACTTC),0.0113
12,TCCTCATCATGGACCGGTTTTCCCGGTAATCCGTATTTGGA (site TCCTCATCTTC),0.00521
13,TCCTTATCATGGACCGGTTTTCCCGGTAATCCGTATTTGTT (site TCCTTATCTAA),0
14,TCCTTTGCATGGACCGGTTTTCCCGGTAATCCGTATTTGTG (site TCCTTTGCTCA),0.0203
15,TCGAAAACATGGACCGGTTTTCCCGGTAATCCGTATTTGTT (site TCGAAAACTAA),0
16,TCGAATTCATGGACCGGTTTTCCCGGTAATCCGTATTTGCC (site TCAAATTCTGG),0
17,TCGAATTCATGGACCGGTTTTCCCGGTAATCCGTATTTGCC (site TCCAATTCTGG),0
18,TCGAATTCATGGACCGGTTTTCCCGGTAATCCGTATTTGCC (site TCGAATTCTGG),0
19,TCGAATTCATGGACCGGTTTTCCCGGTAATCCGTATTTGCC (site TCTAATTCTGG),0.193

row,Sequence,recombinant UMI read abundance (log10)
1,TCGACACCATGGACCGGTTTTCCCGGTAATCCGTATTTGGC (site TCGACACCTGC),0
2,TCGACGGCATGGACCGGTTTTCCCGGTAATCCGTATTTGAG (site TCGACGGCTCT),0.666
3,TCGACTCCATGGACCGGTTTTCCCGGTAATCCGTATTTGTC (site TCGACTCCTGA),0
4,TCGAGTCCATGGACCGGTTTTCCCGGTAATCCGTATTTGAA (site TCGAGTCCTTT),0.307
5,TCGCCTGCATGGACCGGTTTTCCCGGTAATCCGTATTTGGT (site TCGCCTGCTAC),0.0077
6,TCGCTCCCATGGACCGGTTTTCCCGGTAATCCGTATTTGAA (site TCGCTCCCTTT),0.0848
7,TCGGAAACATGGACCGGTTTTCCCGGTAATCCGTATTTGGT (site TCGGAAACTAC),0.88
8,TCGGAACCATGGACCGGTTTTCCCGGTAATCCGTATTTGTA (site TCGGAACCTTA),0
9,TCGGAATCATGGACCGGTTTTCCCGGTAATCCGTATTTGCG (site TAGGAATCTCG),0.861
10,TCGGAATCATGGACCGGTTTTCCCGGTAATCCGTATTTGCG (site TCGGAATCTCG),1.26
11,TCGGAATCATGGACCGGTTTTCCCGGTAATCCGTATTTGCG (site TGGGAATCTCG),0.211
12,TCGGAATCATGGACCGGTTTTCCCGGTAATCCGTATTTGCG (site TTGGAATCTCG),1.03
13,TCGGACCCATGGACCGGTTTTCCCGGTAATCCGTATTTGAA (site TCGGACCCTTT),0.274
14,TCGGACTCATGGACCGGTTTTCCCGGTAATCCGTATTTGTT (site TCGGACTCTAA),3.01
15,TCGGCCCCATGGACCGGTTTTCCCGGTAATCCGTATTTGTT (site TCGGCCCCTAA),0.0126
16,TCGGGAACATGGACCGGTTTTCCCGGTAATCCGTATTTGAT (site TCGGGAACTAT),1.61
17,TCGGTACCATGGACCGGTTTTCCCGGTAATCCGTATTTGCC (site TCGGTACCTGG),0
18,TCGGTATCATGGACCGGTTTTCCCGGTAATCCGTATTTGGT (site TCGGTATCTAC),1.89
19,TCGGTTGCATGGACCGGTTTTCCCGGTAATCCGTATTTGGC (site TCGGTTGCTGC),0.849
